Patent publication US10561638B2, “Methods for treating dependence” (Biotie Therapies, Inc., priority 2007, dated 2020)
Entries after “also recorded” stand apart in the source; their conditions may differ.

Legend:
[1] = tested on: norepinephrine and dopamine levels; assay: Cortex and mesenteric artery catecholamines in SHRs after 7 and 25 days; type: in vivo, spontaneous hypertensive rats
Procedure: Nepicastat at 1 and 10 mg/kg was prepared in terms of the free base. The weighings were dissolved in vehicle (dH2O) to yield oral doses that could be administered in a volume of 10.0 ml/kg.
Male spontaneous hypertensive rats (SHRs), 16-17 weeks old at the onset of the study, were used. Animals were allowed food and water ad libitum. Animals were randomly assigned to one of the following treatment groups: oral administration of nepicastat at 10 mg/kg, 1 mg/kg, or a vehicle group of deionized water at 10 ml/kg. Rats were dosed orally once a day for 7 or 25 days with vehicle, 1 mg/kg or 10 mg/kg nepicastat (n=8) except for day 25, where n=9. On day 7, four hours after compound administration, animals were anesthetized with halothane, decapitated and the cortex and mesenteric artery were harvested, weighed, and analyzed from 24 rats (n=8/treatment group). The remaining […] continued receiving oral administration with one of the three treatments for the following 18 days. At 4 hours after the last treatment the mesenteric artery and cortex from this group were harvested, weighed, and analyzed for catecholamine levels.
Statistically, the three treatments were compared at each time period (7 or 25 days) using a non-parametric one-way analysis of variance (ANOVA). Pairwise comparisons of each treatment with control were performed using Fisher's LSD strategy on the means, adjusted for differences in sample size, to control the experiment-wise error rate. Each variable was analyzed separately. For FIGS. 6-11, *, p<0.05 and **, P<0.01.

[2] = tested on: spontaneous hypertensive rats; assay: SCH-23390 pretreatment study in restrained SHRs; type: in vivo; details: nepicastat 10 mg/kg po
Description: Male, spontaneous hypertensive rats (280-345 g; Charles River Labs, Kingston, N.Y.) were fasted overnight then anesthetized with ether. A femoral artery and femoral vein were cannulated with PE50 tubing for recording of blood pressure and administration of compounds, respectively. Animals were then placed in MAYO restrainers and their feet loosely taped to the restrainer. Heparinized saline (50 units sodium heparin/ml) was used to maintain patency of each cannula throughout the experiment. The following parameters were continuously recorded using Modular Instruments MI^2 BioReport™ software installed on an IBM personal computer: mean arterial pressure (MAP), heart rate (HR), and the change from baseline for each parameter at specified time points in the experiment.
All compounds were dissolved on the day of use. Nepicastat was dissolved in deionized water (vehicle) to a free base concentration of 1 mg/ml. Oral dosing volume for nepicastat or vehicle was 10 ml/kg. SCH-23390 was dissolved in saline (vehicle) to a free base concentration of 0.2 mg/ml. […] or saline were administered intravenously as a bolus in a volume of 1.0 ml/kg followed by 0.2 ml flush of isotonic saline.
Following surgical preparation, each animal was allowed a minimum one hour recovery period. Animals were randomly assigned to four treatment groups: vehicle (iv)/vehicle (po); vehicle (iv)/nepicastat (po); SCH-23390 (iv)/vehicle (po); or SCH-23390 (iv)/nepicastat (po). Once animals were stabilized (minimum one hour), baseline blood pressure and heart rate was determined by taking an average of each parameter over a 15 min period of time. Once baseline blood pressure and heart rate were established, animals were dosed intravenously with either SCH-23390 (200 μg/kg) or vehicle (saline, 1 ml/kg). Fifteen minutes later, animals were orally dosed with either nepicastat (10 mg/kg) or vehicle (deionized water, 10 ml/kg).
Recorded parameters were measured 15 min prior to intravenous dosing to establish baseline blood pressure and heart rate. Recorded parameters were then measured at 5, 10, and 15 min following intravenous administration of SCH-23390 or vehicle. Following oral administration of nepicastat or vehicle, recorded parameters were measured at 15, 30, 60, 90, 120, 150, 180, 210, and 240 min.
At the end of the experiment, each animal was anesthetized with halothane and euthanized via decapitation. The cortex, left ventricle (apex), and mesenteric artery were dissected out, weighed, and fixed in 0.4 M perchloric acid. Tissues were then frozen in liquid nitrogen and stored at −70° C. Biochemical analysis are performed on these tissues at a later date to determine catecholamine levels including dopamine and norepinephrine levels. Blood pressure and heart rate were analyzed separately. The change from baseline for blood pressure and heart rate were analyzed by an analysis of variance (ANOVA) with effects for treatment, time, and their interaction. This analysis was performed both for the post-iv time period and for the post-oral time period. Further analyses were performed at each time by an ANOVA with a main effect for […]. Pairwise comparisons were performed following each ANOVA by Fisher's LSD strategy with a Bonferroni correction when the overall treatment effect was not significant.
An additional analysis was performed to compare the baseline means of each treatment group by an ANOVA with a main effect for treatment and subsequent pairwise comparisons. […]

[3] = tested on: brain dopamine/norepinephrine ratio; assay: Dopamine/norepinephrine ratios in the brain of rodents; details: in vivo
Procedure: Dopamine/norepinephrine ratios in the brain of rodents treated with nepicastat were determined. Dopamine/norepinephrine ratios increased in the brains of rodents treated with nepicastat or disulfuram.

[4] = cerebral cortex, 7 days, 10 mg/kg
[5] = mesenteric artery, 7 and 25 days, 10 mg/kg

Structure (SMILES): Cl.NCc1c[nH]c(=S)n1[C@H]1CCc2c(F)cc(F)cc2C1 [nepicastat, (S)-5-Aminomethyl-1-(5,7-difluoro-1,2,3,4-tetrahydronaphth-2-yl)-2,3-dihydro-2-thioxo-1H-imidazole hydrochloride]
- norepinephrine levels and dopamine/norepinephrine ratio vs vehicle ([1]; cerebral cortex, 7 days, 1 mg/kg): no significant (p>0.05) differences
- dopamine/norepinephrine ratio vs vehicle [1, 4]: significantly (p<0.05) higher
- norepinephrine levels vs vehicle [1, 4]: significantly (p<0.1) lower
- dopamine levels vs vehicle ([1]; cerebral cortex, 7 days, 1 or 10 mg/kg): no significant (p>0.05) differences
- dopamine levels vs vehicle ([1]; cortex, 25 days, 1 mg/kg): significantly (p<0.05) higher
- dopamine/norepinephrine ratio vs vehicle ([1]; cortex, 25 days, 1 mg/kg): significantly (p<0.01) greater
- dopamine/norepinephrine ratio vs vehicle ([1]; cortex, 25 days, 10 mg/kg): significantly greater (p<0.05)
- norepinephrine levels vs control ([1]; cortex, 25 days, either dose): not significantly (p.>0.05) different
- all parameters vs control ([1]; mesenteric artery, 1 mg/kg): None of the parameters measured were significantly (p<0.05) different
- dopamine levels and dopamine/norepinephrine ratios vs vehicle [1, 5]: significantly higher dopamine levels and dopamine/norepinephrine ratios
- norepinephrine levels vs vehicle [1, 5]: no differences in norepinephrine levels
- heart rate vs vehicle ([2]; SCH-23390 200 μg/kg iv): did not decrease the heart rate as much as observed in vehicle treated animals
- mean arterial pressure [2]: significant decrease (p<0.05) in mean arterial pressure
- time post dose by which MAP decrease was significant [2]: ≤ 30 min
- antihypertensive effect of nepicastat after pretreatment with SCH-23390 ([2]; SCH-23390 iv, hydrochloride): not attenuated; also recorded: did not significantly attenuate
- dopamine/norepinephrine ratios in the brain [3]: increased
